Reference: the NIST ThermoML archive (doi:10.1016/j.jct.2006.02.005)
“And” between values parts separate entries of the source, which are not always exact repeats. Equal values may be shown once.

What was measured:
[1] = for Normal melting temperature: Crystal 1; for Triple point temperature: Crystal 2
[2] = Molar enthalpy of transition or fusion
[3] = molar heat capacity at constant pressure; details: 101.33 kPa

CC(C)(CO)CO [2,2-dimethyl-1,3-propanediol]
[1]
Details | Normal melting temperature [°C] | Triple point temperature [K]
– | 128.48 | 315.14

[2]
Details | Molar enthalpy of transition or fusion [kcal/mol]
Crystal 1 | 1.01
Crystal 2 | 2.92

[3]
Details | molar heat capacity at constant pressure
193.15 K, Crystal 2 | 120.71 J/K/mol and 121.44 J/K/mol
198.15 K, Crystal 2 | 122.48 J/K/mol and 123 J/K/mol
203.15 K, Crystal 2 | 124.15 J/K/mol and 124.36 J/K/mol
208.15 K, Crystal 2 | 123.83 J/K/mol and 125.5 J/K/mol
213.15 K, Crystal 2 | 125.6 J/K/mol and 127.58 J/K/mol
218.15 K, Crystal 2 | 127.48 J/K/mol and 130.08 J/K/mol
223.15 K, Crystal 2 | 130.08 J/K/mol and 132.06 J/K/mol
228.15 K, Crystal 2 | 132.79 J/K/mol and 133.62 J/K/mol
233.15 K, Crystal 2 | 134.98 J/K/mol and 134.87 J/K/mol
238.15 K, Crystal 2 | 135.71 J/K/mol and 136.54 J/K/mol
243.15 K, Crystal 2 | 136.64 J/K/mol and 138.1 J/K/mol
248.15 K, Crystal 2 | 136.64 J/K/mol and 140.5 J/K/mol
253.15 K, Crystal 2 | 138 J/K/mol and 142.37 J/K/mol
258.15 K, Crystal 2 | 139.46 J/K/mol and 144.66 J/K/mol
263.15 K, Crystal 2 | 141.23 J/K/mol and 147.79 J/K/mol
268.15 K, Crystal 2 | 142.89 J/K/mol and 150.6 J/K/mol
273.15 K, Crystal 2 | 145.29 J/K/mol and 153.62 J/K/mol
278.15 K, Crystal 2 | 156.54 J/K/mol and 147.48 J/K/mol
283.15 K, Crystal 2 | 160.08 J/K/mol and 150.18 J/K/mol
288.15 K, Crystal 2 | 164.45 J/K/mol and 153.31 J/K/mol
293.15 K, Crystal 2 | 168.1 J/K/mol and 156.12 J/K/mol
298.15 K, Crystal 2 | 172.06 J/K/mol and 159.25 J/K/mol
303.15 K, Crystal 2 | 176.53 J/K/mol and 163.1 J/K/mol
308.15 K, Crystal 2 | 184.35 J/K/mol and 167.58 J/K/mol
323.15 K, Crystal 1 | 260.17 J/K/mol and 244.86 J/K/mol
328.15 K, Crystal 1 | 268.5 J/K/mol and 247.56 J/K/mol
333.15 K, Crystal 1 | 250.27 J/K/mol and 274.54 J/K/mol
338.15 K, Crystal 1 | 252.15 J/K/mol and 278.81 J/K/mol
343.15 K, Crystal 1 | 254.75 J/K/mol and 282.45 J/K/mol
348.15 K, Crystal 1 | 256.52 J/K/mol and 286.2 J/K/mol
353.15 K, Crystal 1 | 258.71 J/K/mol and 288.81 J/K/mol
358.15 K, Crystal 1 | 260.79 J/K/mol and 291.2 J/K/mol
363.15 K, Crystal 1 | 263.19 J/K/mol and 294.22 J/K/mol
368.15 K, Crystal 1 | 265.69 J/K/mol and 296.93 J/K/mol
373.15 K, Crystal 1 | 268.39 J/K/mol and 299.85 J/K/mol
378.15 K, Crystal 1 | 272.04 J/K/mol and 303.6 J/K/mol
383.15 K, Crystal 1 | 277.04 J/K/mol and 309.64 J/K/mol
388.15 K, Crystal 1 | 285.06 J/K/mol and 322.55 J/K/mol
393.15 K, Crystal 1 | 309.85 J/K/mol and 358.48 J/K/mol
408.15 K, Liquid | 330.26 J/K/mol
413.15 K, Liquid | 339.95 J/K/mol
418.15 K, Liquid | 345.99 J/K/mol
423.15 K, Liquid | 353.38 J/K/mol

CC(N)(CO)CO [2-amino-2-methyl-1,3-propanediol]
[1]
Details | Normal melting temperature [°C] | Triple point temperature [K]
– | 110.93 | 355.66

[2]
Details | Molar enthalpy of transition or fusion [kcal/mol]
Crystal 1 | 0.658
Crystal 2 | 5.63

[3]
Details | molar heat capacity at constant pressure
193.15 K, Crystal 3 | 118.91 J/K/mol and 107.45 J/K/mol and 121.86 J/K/mol
198.15 K, Crystal 3 | 121.86 J/K/mol and 119.23 J/K/mol and 108.93 J/K/mol
203.15 K, Crystal 3 | 123.22 J/K/mol and 119.86 J/K/mol and 110.29 J/K/mol
208.15 K, Crystal 3 | 119.54 J/K/mol and 111.13 J/K/mol and 124.91 J/K/mol
213.15 K, Crystal 3 | 126.27 J/K/mol and 119.96 J/K/mol and 112.18 J/K/mol
218.15 K, Crystal 3 | 127.85 J/K/mol and 121.12 J/K/mol and 113.66 J/K/mol
223.15 K, Crystal 3 | 129.11 J/K/mol and 122.28 J/K/mol and 115.97 J/K/mol
228.15 K, Crystal 3 | 130.37 J/K/mol and 123.22 J/K/mol and 118.39 J/K/mol
233.15 K, Crystal 3 | 132.06 J/K/mol and 124.17 J/K/mol and 121.02 J/K/mol
238.15 K, Crystal 3 | 133.84 J/K/mol and 125.85 J/K/mol and 124.17 J/K/mol
243.15 K, Crystal 3 | 135 J/K/mol and 129.32 J/K/mol and 126.8 J/K/mol
248.15 K, Crystal 3 | 136.37 J/K/mol and 130.9 J/K/mol and 128.8 J/K/mol
253.15 K, Crystal 3 | 130.69 J/K/mol and 135.32 J/K/mol and 132.16 J/K/mol
258.15 K, Crystal 3 | 131.32 J/K/mol and 134.05 J/K/mol and 134.16 J/K/mol
263.15 K, Crystal 3 | 133 J/K/mol and 134.05 J/K/mol and 136.37 J/K/mol
268.15 K, Crystal 3 | 134.16 J/K/mol and 135.84 J/K/mol and 137.52 J/K/mol
273.15 K, Crystal 3 | 134.58 J/K/mol and 137.42 J/K/mol and 138.78 J/K/mol
278.15 K, Crystal 3 | 136.79 J/K/mol and 139.1 J/K/mol and 140.47 J/K/mol
283.15 K, Crystal 3 | 139.63 J/K/mol and 140.68 J/K/mol and 142.67 J/K/mol
288.15 K, Crystal 3 | 142.04 J/K/mol and 143.83 J/K/mol
293.15 K, Crystal 3 | 143.62 J/K/mol and 144.46 J/K/mol and 145.83 J/K/mol
298.15 K, Crystal 3 | 145.62 J/K/mol and 146.46 J/K/mol and 148.25 J/K/mol
303.15 K, Crystal 3 | 147.51 J/K/mol and 148.46 J/K/mol and 151.61 J/K/mol
308.15 K, Crystal 3 | 148.88 J/K/mol and 150.03 J/K/mol and 153.82 J/K/mol
313.15 K, Crystal 3 | 150.67 J/K/mol and 151.82 J/K/mol and 154.56 J/K/mol
318.15 K, Crystal 3 | 151.51 J/K/mol and 154.35 J/K/mol and 155.5 J/K/mol
323.15 K, Crystal 3 | 152.66 J/K/mol and 156.87 J/K/mol and 158.97 J/K/mol
328.15 K, Crystal 3 | 154.98 J/K/mol and 159.5 J/K/mol and 164.54 J/K/mol
333.15 K, Crystal 3 | 157.6 J/K/mol and 162.34 J/K/mol and 168.33 J/K/mol
338.15 K, Crystal 3 | 160.02 J/K/mol and 165.49 J/K/mol and 171.9 J/K/mol
343.15 K, Crystal 3 | 163.07 J/K/mol and 168.33 J/K/mol and 176.74 J/K/mol
348.15 K, Crystal 3 | 186.94 J/K/mol and 175.58 J/K/mol and 198.92 J/K/mol
368.15 K, Crystal 1 | 297.97 J/K/mol and 303.43 J/K/mol and 287.35 J/K/mol
373.15 K, Crystal 1 | 299.96 J/K/mol and 302.7 J/K/mol and 289.98 J/K/mol
378.15 K, Crystal 1 | 306.17 J/K/mol and 309.95 J/K/mol and 295.76 J/K/mol
393.15 K, Liquid | 322.67 J/K/mol and 320.57 J/K/mol and 328.56 J/K/mol
398.15 K, Liquid | 327.41 J/K/mol and 323.41 J/K/mol and 339.71 J/K/mol
403.15 K, Liquid | 331.72 J/K/mol and 325.62 J/K/mol and 352.43 J/K/mol
408.15 K, Liquid | 327.83 J/K/mol and 335.19 J/K/mol
413.15 K, Liquid | 330.03 J/K/mol
